Experimental data: US5481013A, “Carboxylic acid derivatives” (Ciba-Geigy Corporation, priority 1992, dated 1996)

What was measured:
Format in all cases: in vivo
[1] = system: Nilaparvata lugens; experiment: Activity against Nilaparvata lugens (spray on rice plants); settings: 504 h, 400 ppm spray on rice plants, larvae in stages 2 and 3, evaluated after 21 days, read-out: percentage reduction in population (% activity)
Method: Rice plants are treated with a spray mixture prepared with an aqueous emulsion and comprising 400 ppm of the active ingredient. After the spray coating has dried on, the rice plants are populated with plant hopper larvae in stages 2 and 3. The test is evaluated after 21 days. The percentage reduction in population (% activity) is determined by comparing the number of surviving plant hoppers on the treated plants with the number of plant hoppers on the untreated plants. […] An activity of over 80% is shown, in particular, by compound Nos. 1.01, 2.01 to 2.03, 2.07, 2.08, 2.10 to 2.16, 2.20, 2.22, 2.23, 2.26, 3.01, 4.01 to 4.06, 4.20, 5.01 to 5.06, 5.08, 5.10 to 5.12, 5.15, 5.16 and 5.20 to 5.25.

[2] = system: Nephotettix cincticeps; experiment: Activity against Nephotettix cincticeps (spray on rice plants); settings: 504 h, 400 ppm spray on rice plants, larvae in stages 2 and 3, evaluated 21 days later, read-out: percentage reduction in population (% activity)
Method: Rice plants are treated with a spray mixture prepared with an aqueous emulsion and comprising 400 ppm of the active ingredient. After the spray coating has dried on, the rice plants are populated with leaf hopper larvae in stages 2 and 3. The test is evaluated 21 days later. The percentage reduction in population (% activity) is determined by comparing the number of surviving leaf hoppers on the treated plants with those on the untreated plants.

[3] = system: adult Anthonomus grandis; experiment: Activity against adult Anthonomus grandis; settings: 72 h, 400 ppm spray on young cotton plants, adults, evaluated after 3 days, read-out: percentage reduction in population or in feeding damage (% activity)
[4] = system: Tetranychus urticae; experiment: Activity against Tetranychus urticae; settings: 144 h, 400 ppm spray on young bean plants, mixed population, 6 days at 25° C, read-out: percentage reduction in population (% activity)
Method: Young bean plants are populated with a mixed population of Tetranychus urticae and, after 1 day, sprayed with a spray mixture prepared with an aqueous emulsion and comprising 400 ppm of the active ingredient. The plants are subsequently incubated for 6 days at 25° C and then evaluated. The percentage reduction in population (% activity) is determined by comparing the number of dead eggs, larvae and adults on the treated plants with those on the untreated ones.

[5] = system: Heliothis virescens caterpillars; experiment: Activity against Heliothis virescens caterpillars; settings: 144 h, 400 ppm spray on young soybean plants, first larval stage, evaluated after 6 days, read-out: percentage reduction in population or in feeding damage (% activity)
Method: Young soybean plants are sprayed with a spray mixture prepared with an aqueous emulsion and comprising 400 ppm of the active ingredient. After the spray coating has dried on, the soybean plants are populated with 10 Heliothis virescens in the first larval stage and placed into a plastic container. The test is evaluated after 6 days. The percentage reduction in population, or the percentage reduction in feeding damage (% activity), is determined by comparing the number of dead caterpillars and the feeding damage on the treated plants with those on the untreated plants.

[6] = system: Nephotettix cincticeps; experiment: Systemic activity against Nephotettix cincticeps; settings: 144 h, pots with rice plants in 400 ppm aqueous emulsion solution, larvae in stages 2 and 3, evaluated after 6 days, read-out: percentage reduction in population (% activity)
Method: Pots containing rice plants are placed into an aqueous emulsion solution comprising 400 ppm of the active ingredient. The rice plants are subsequently populated with larvae in stages 2 and 3. The test is evaluated after 6 days. The percentage reduction in population (% activity) is determined by comparing the number of leaf hoppers on the treated plants with those on the untreated plants.

[7] = system: Aphis craccivora; experiment: Activity against Aphis craccivora; settings: 400 ppm spray on pea seedlings, 20° C., evaluated after 3 and 6 days, read-out: percentage reduction in population (% activity)
Method: Pea seedlings are infected with Aphis craccivora, subsequently sprayed with a spray mixture comprising 400 ppm of the active ingredient, and incubated at 20° C. The test is evaluated after 3 and 6 days. The percentage reduction in population (% activity) is determined by comparing the number of dead aphids on the treated plants with those on the untreated plants.

[8] = system: Bemisia tabaci; experiment: Activity against Bemisia tabaci; settings: 336 h, 400 ppm spray on dwarf bean plants with nymphs, evaluated 14 days after application, read-out: activity (hatching percentages vs untreated control)
Method: Dwarf bean plants are placed into gauze cages and populated with adult Bemisia tabaci specimens (white fly). After oviposition has taken place, all adults are removed and, 10 days later, the plants with the nymphs located thereon are treated with a spray mixture of the active ingredients to be tested (concentration 400 ppm), which has been prepared with an aqueous emulsion. The test is evaluated for hatching percentages 14 days after the active ingredient has been applied by comparison with the untreated control batches. […] An activity of over 80% is shown, in particular, by compound Nos. 1.01, 2.01 to 2.08, 2.10 to 2.16, 2.22, 2.23, 3.01, 4.01, 4.02, 4.05, 4.06, 5.02, 5.03, 5.06 to 5.08, 5.10, 5.11, 5.20, 5.21 and 6.09.

[9] = system: Nilaparvata lugens; experiment: Systemic activity against Nilaparvata lugens; settings: 144 h, pots with rice plants in 400 ppm aqueous emulsion solution, larvae in stages 2 and 3, evaluated 6 days later, read-out: percentage reduction in population (% activity)
Method: Pots containing rice plants are placed into an aqueous emulsion solution comprising 400 ppm of the active ingredient. The rice plants are subsequently populated with larvae in stages 2 and 3. The test is evaluated 6 days later. The percentage reduction in population (% activity) is determined by comparing the numbers of plant hoppers on the treated plants with those on the untreated plants.

[10] = system: Crocidolomia binotalis caterpillars; experiment: Activity against Crocidolomia binotalis caterpillars; settings: Brassica oleracea, 72 h; 400 ppm spray on young cabbage plants, third larval stage, evaluated after 3 days; read-out: percentage reduction in population or in feeding damage (% activity)
Method: Young cabbage plants are sprayed with a spray mixture prepared with an aqueous emulsion and comprising 400 ppm of the active ingredient. After the spray coating has dried on, the cabbage plants are infested with 10 Crocidolomia binotalis in the third larval stage and placed into a plastic container. The test is evaluated after 3 days. The percentage reduction in population, or the percentage reduction in feeding damage (% activity), is determined by comparing the number of dead caterpillars and the feeding damage on the treated plants with those on the untreated plants.

O=C(CC=C(F)F)OCCOc1ccc(Oc2ccccc2)cc1 [Compound 1.01, 2-(4-phenoxyphenoxy)ethyl-4,4-difluorobut-3-enoate]
> 80%: activity at 400 ppm [1] | activity at 400 ppm [2] | activity at 400 ppm [3] | activity at 400 ppm [4] | activity at 400 ppm [5] | activity at 400 ppm [6] | activity at 400 ppm [7] | pest or weed control at 400 ppm [8] | activity at 400 ppm [9] | activity at 400 ppm [10]

O=C(CCCCCC=C(F)F)OCCOc1ccc(Oc2ccccc2)cc1 [Compound 3.01]
> 80%: activity at 400 ppm [1] | activity at 400 ppm [2] | activity at 400 ppm [3] | activity at 400 ppm [4] | activity at 400 ppm [5] | activity at 400 ppm [6] | activity at 400 ppm [7] | pest or weed control at 400 ppm [8] | activity at 400 ppm [9] | activity at 400 ppm [10]
